Test results taken from publication PMC6658998, “Pharmacological characterization of the seven human NOX isoforms and their inhibitors” (Redox Biology, 2019).

Key:
[1] = target: T1, NOX2 (Homo sapiens, UniProt P04839); test: NOX2 activity in purified PLB-985 membranes (WST-1, CBA); type: biochemical
T1 sequence (P04839 2-570 limits assumed): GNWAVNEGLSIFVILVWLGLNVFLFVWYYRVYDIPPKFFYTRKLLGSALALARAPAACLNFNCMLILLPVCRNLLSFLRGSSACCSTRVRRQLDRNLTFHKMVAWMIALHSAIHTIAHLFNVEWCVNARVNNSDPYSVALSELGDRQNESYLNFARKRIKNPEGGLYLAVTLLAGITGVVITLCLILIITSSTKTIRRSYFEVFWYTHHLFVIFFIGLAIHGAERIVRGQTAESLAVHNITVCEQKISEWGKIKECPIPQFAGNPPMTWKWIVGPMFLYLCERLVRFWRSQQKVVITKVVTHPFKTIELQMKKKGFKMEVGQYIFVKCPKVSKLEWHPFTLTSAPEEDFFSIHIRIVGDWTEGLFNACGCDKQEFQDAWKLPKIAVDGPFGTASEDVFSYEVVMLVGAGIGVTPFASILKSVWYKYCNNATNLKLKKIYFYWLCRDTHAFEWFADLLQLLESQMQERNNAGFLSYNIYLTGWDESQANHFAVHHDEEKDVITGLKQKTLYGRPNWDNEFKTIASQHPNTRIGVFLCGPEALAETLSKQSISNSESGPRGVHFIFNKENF
Protocol: PLB-985 (40 dishes 150 cm^2) were grown in suspension and differentiated by addition of 1.25% DMSO for 72 h. HEK293 cells expressing NOX5 (40 dishes 150 cm^2) were amplified until confluence and detached using trypsin-EDTA for 5 min followed by addition of 2 vol of pre-warmed complete growth media to inactivate trypsin. Collected cells were centrifuged at 4000 ×g for 10 min. Cells were washed with PBS and centrifuged at 1500 ×g for 10 min. The supernatant was discarded and the pellet was placed at −80 °C for at least 30 min. […] Samples were sonicated two times for 25 s (level 7, Branson Sonifier 250). Cell debris were removed by centrifugation at 800 ×g for 10 min at 4 °C. […] Protein concentration was determined with Bradford reagent using BSA as a standard. […]
NOX2 containing membranes were used at 10 μg/mL of proteins in a reaction mixture containing 90 nM recombinant RacQ61L, 45 nM recombinant p67Np47 N chimeric protein (consisting of a fusion of the N-termini of human p67phox [residues 1–210] and p47phox [residues 1–286]), 90 μM SDS, 1 μM FAD-Na2 and 1 mM WST-1 or 800 μM CBA in PBS. The reaction mixture was dispensed in 96-well plates (transparent for WST-1 absorbance, black for CBA fluorescence) at 80 μL/well and the plate was incubated for 5 min at 37 °C. […]

[2] = target: NOX4 (Homo sapiens, UniProt Q9NPH5); settings: NOX4 T-rex cells, tetracycline 24 h, antimycin A 1 μM, compound 10 μM
Protocol: For NOX4-dependent oxygen consumption, NOX4 T-Rex HEK cells (50,000 cells/well) were plated onto poly-L-lysine coated XF24 cell culture microplates (Seahorse), treated with 1 μg/mL tetracycline and incubated at 37 °C with 5% CO2 for 24 h. One hour prior to assay, the medium was changed to DMEM without carbonate buffer supplemented with 10 mM HEPES, pH 7.4 and the cells were then incubated for 1 h at 37 °C in normal atmosphere. The baseline oxygen consumption rate (OCR) was recorded 3 times before rotenone (1 μM) and antimycin A (1 μM) were added to eliminate mitochondrial oxygen consumption and 1 OCR cycle was measured. Test compounds were added in the second injection and 4 OCR cycles were recorded. Each OCR cycle was as follows: 3 min mixing; 2 min waiting; 3 min measuring. The basal OCR in tetracycline-induced cells (prior to addition of blockers of mitochondrial respiration) was considered as 100%. Data were analysed using Wave XFe 2.1.0 software. At least three independent experiments were performed for each compound.

[3] = system: all NOX isoforms; settings: compound 10 μM, NOX1-5, DUOX1, DUOX2 cell lines
[4] = target: NOX1; parameters: method as in PMID 27273790; settings: documented values, measured using Amplex Red/HRP assay; cited from earlier work
[5] = target: NOX4; parameters: method as in PMID 27273790; settings: documented values, measured using Amplex Red/HRP assay; cited from earlier work
[6] = target: NOX5; parameters: method as in PMID 27273790; settings: documented values, measured using Amplex Red/HRP assay; cited from earlier work
[7] = target: NOX2; parameters: method as in PMID 27273790; settings: documented values, measured using Amplex Red/HRP assay; cited from earlier work

Sequence of NOX4 (Homo sapiens, UniProt Q9NPH5) (Q9NPH5 whole entry, canonical isoform): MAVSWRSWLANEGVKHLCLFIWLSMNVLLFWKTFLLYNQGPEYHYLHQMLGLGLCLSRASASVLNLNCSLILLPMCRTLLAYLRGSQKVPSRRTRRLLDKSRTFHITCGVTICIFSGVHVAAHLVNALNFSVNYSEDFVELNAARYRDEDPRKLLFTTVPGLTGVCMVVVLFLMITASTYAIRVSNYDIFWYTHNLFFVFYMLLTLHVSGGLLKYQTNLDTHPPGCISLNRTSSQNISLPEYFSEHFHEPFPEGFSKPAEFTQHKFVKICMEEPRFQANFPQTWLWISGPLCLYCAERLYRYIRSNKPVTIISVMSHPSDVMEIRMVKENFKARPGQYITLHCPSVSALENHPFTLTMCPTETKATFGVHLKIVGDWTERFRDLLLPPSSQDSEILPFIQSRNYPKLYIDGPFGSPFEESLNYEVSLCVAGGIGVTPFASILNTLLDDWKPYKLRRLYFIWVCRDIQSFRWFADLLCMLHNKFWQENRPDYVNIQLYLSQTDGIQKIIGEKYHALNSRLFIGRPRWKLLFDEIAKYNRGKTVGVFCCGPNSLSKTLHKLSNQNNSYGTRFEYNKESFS
Sequence of NOX4 (Homo sapiens, UniProt Q9NPH5) (P13498 whole entry partner, canonical isoform): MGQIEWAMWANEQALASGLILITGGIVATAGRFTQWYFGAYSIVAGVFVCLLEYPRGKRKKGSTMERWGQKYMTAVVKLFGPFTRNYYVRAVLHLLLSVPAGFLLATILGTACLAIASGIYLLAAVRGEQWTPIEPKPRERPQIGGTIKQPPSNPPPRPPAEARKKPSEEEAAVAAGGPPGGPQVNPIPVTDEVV

c1ccc2c(c1)[I+]c1ccccc1-2 [DPI, diphenylene iodonium chloride]
Inhibitory activity in NOX2 membrane assay ([1]; WST-1 / CBA, concentration not given): potently inhibited
Inhibition of NOX4-dependent (non-mitochondrial) oxygen consumption [2]: inhibited
Inhibition of NOX isoforms in cell lines [3]: inhibits all NOX isoforms

O=c1c2ccccc2[se]n1-c1ccccc1 [Ebselen, ebselen]
Inhibition of NOX2-dependent signal in membranes ([1]; compound 50 μM): inhibited

Cc1c2c(=O)n(-c3ccccc3Cl)[nH]c2cc(=O)n1Cc1ccccn1 [GKT136901]
Ki NOX1 [4]: nanomolar range
Ki NOX4 [5]: nanomolar range
Ki NOX5 [6]: nanomolar range
Ki NOX2 [7]: micromolar range
